Results reported in ChEMBL document CHEMBL1148291, “Prediction of human volume of distribution values for neutral and basic drugs. 2. Extended data set and leave-class-out statistics” (J Med Chem, 2004).

Key:
[1] = Ionization constant (pKa); assay type: physicochemical
[2] = human, plasma
Description: Unbound fraction (plasma)

clinical = details: human, in vivo
Description: Observed volume of distribution

Row | Structure (SMILES) | pKa [1] | Fu [2] | Vd (clinical)
1 | OCCN1CCN(CCCN2c3ccccc3Sc3ccc(Cl)cc32)CC1 [PERPHENAZINE] | 8.11 | 0.07 | 20 L/kg
2 | CC(C)(C)NCC(O)COc1cccc2c1C[C@H](O)[C@H](O)C2 (stereo not given in full) [NADOLOL] |  | 0.7 | 1.94 L/kg
